Legend:
Aspergillus niger = experiment: Test Method A: fungus formation on treated paint/plaster discs, Aspergillus niger; assay type: cell-based
Protocol: (§1) The biological effectiveness of a product according to Example 1 was tested both in an aqueous acrylate paint and in an aqueous plaster dispersion as follows:
(§2) To 50 grams of a usual acrylic paint (for composition see Table I) and of a plaster (for composition see Table II) composition to be tested, the fungicidal compound of Example 1 was added in different concentrations. After extensive stirring, the samples were coated on a sheet of pasteboard and dried for 24 hours at room temperature and for an additional 24 hours at 40° C. These paper samples were then subjected for 72 hours to a water sprayout test whereby 1 liter of water per minute was flushed over the paper supports. After drying for 24 hours at room temperature and for 24 hours at 40° C., the test samples were irradiated for 24 hours with ultraviolet light. Test discs having a diameter of 50 mm were cut from the pasteboard and sterilized with ethylene oxide.
(§3) Sabouraud-plates were seeded with a 0.2 ml suspension of either Aspergillus niger or Alternaria containing about 10^7 germs per ml. The test discs were put onto the plates and incubated at a temperature of 25° to 27° C. for a period of 3 weeks. After a period of 1 or 2 or 3 weeks, respectively, the contamination was rated as follows:
(§4) 1=very small fungus formation (0-5% of the entire surface)
(§5) 2=weak fungus formation (5-25% of the entire surface)
(§6) 3=medium fungus formation (25 to 50% of the entire surface)
(§7) 4=strong fungus formation (50-99% of the entire surface)
(§8) 5=no inhibition of fungus formation.
(§9) A known tetradecane-sulfonic acid adduct of 2-methoxycarbonylaminobenzimidazole (BCM), CARBENDASULF (Hoechst AG, Frankfurt/Main, Germany; prepared according to Example 1 of U.S. Pat. No. 4,046,906), was used for comparison.

Alternaria = experiment: Test Method A: fungus formation on treated paint/plaster discs, Alternaria; assay type: cell-based
Protocol: as §1, §2, §3, §4, §5, §6, §7, §8, §9

[1] = acrylic dispersion paint, conc. 0.01%, 1 week
[2] = acrylic dispersion paint, conc. 0.01%, 2 weeks
[3] = acrylic dispersion paint, conc. 0.01%, 3 weeks
[4] = acrylic dispersion paint, conc. 0.02%, 1 week
[5] = acrylic dispersion paint, conc. 0.02%, 2 weeks
[6] = acrylic dispersion paint, conc. 0.02%, 3 weeks
[7] = acrylic dispersion paint, conc. 0.05%, 1 week
[8] = acrylic dispersion paint, conc. 0.05%, 2 weeks
[9] = acrylic dispersion paint, conc. 0.05%, 3 weeks

COC(=O)Nc1nc2ccccc2[nH]1 [CARBENDASULF, tetradecane-sulfonic acid adduct of 2-methoxycarbonylaminobenzimidazole (BCM)]
contamination rating (fungus formation) (Aspergillus niger; [1]): 3 (medium fungus formation (25 to 50% of the entire surface))
contamination rating (fungus formation) (Aspergillus niger; [2]): 3 (medium fungus formation (25 to 50% of the entire surface))
contamination rating (fungus formation) (Aspergillus niger; [3]): 4 (strong fungus formation (50-99% of the entire surface))
contamination rating (fungus formation) (Aspergillus niger; [4]): 2 (weak fungus formation (5-25% of the entire surface))
contamination rating (fungus formation) (Aspergillus niger; [5]): 2 (weak fungus formation (5-25% of the entire surface))
contamination rating (fungus formation) (Aspergillus niger; [6]): 3 (medium fungus formation (25 to 50% of the entire surface))
contamination rating (fungus formation) (Aspergillus niger; [7]): 1 (very small fungus formation (0-5% of the entire surface))
contamination rating (fungus formation) (Aspergillus niger; [8]): 1 (very small fungus formation (0-5% of the entire surface))
contamination rating (fungus formation) (Aspergillus niger; [9]): 2 (weak fungus formation (5-25% of the entire surface))
contamination rating (fungus formation) (Aspergillus niger; plaster, conc. 0.01%, 1 week): 2 (weak fungus formation (5-25% of the entire surface))
contamination rating (fungus formation) (Aspergillus niger; plaster, conc. 0.01%, 2 weeks): 3 (medium fungus formation (25 to 50% of the entire surface))
contamination rating (fungus formation) (Aspergillus niger; plaster, conc. 0.01%, 3 weeks): 3 (medium fungus formation (25 to 50% of the entire surface))
contamination rating (fungus formation) (Aspergillus niger; plaster, conc. 0.02%, 1 week): 1 (very small fungus formation (0-5% of the entire surface))
contamination rating (fungus formation) (Aspergillus niger; plaster, conc. 0.02%, 2 weeks): 2 (weak fungus formation (5-25% of the entire surface))
contamination rating (fungus formation) (Aspergillus niger; plaster, conc. 0.02%, 3 weeks): 3 (medium fungus formation (25 to 50% of the entire surface))
contamination rating (fungus formation) (Aspergillus niger; plaster, conc. 0.05%, 1 week): 1 (very small fungus formation (0-5% of the entire surface))
contamination rating (fungus formation) (Aspergillus niger; plaster, conc. 0.05%, 2 weeks): 1 (very small fungus formation (0-5% of the entire surface))
contamination rating (fungus formation) (Aspergillus niger; plaster, conc. 0.05%, 3 weeks): 2 (weak fungus formation (5-25% of the entire surface))
contamination rating (fungus formation) (Alternaria; [1]): 3 (medium fungus formation (25 to 50% of the entire surface))
contamination rating (fungus formation) (Alternaria; [2]): 3 (medium fungus formation (25 to 50% of the entire surface))
contamination rating (fungus formation) (Alternaria; [3]): 4 (strong fungus formation (50-99% of the entire surface))
contamination rating (fungus formation) (Alternaria; [4]): 2 (weak fungus formation (5-25% of the entire surface))
contamination rating (fungus formation) (Alternaria; [5]): 2 (weak fungus formation (5-25% of the entire surface))
contamination rating (fungus formation) (Alternaria; [6]): 3 (medium fungus formation (25 to 50% of the entire surface))
contamination rating (fungus formation) (Alternaria; [7]): 1 (very small fungus formation (0-5% of the entire surface))
contamination rating (fungus formation) (Alternaria; [8]): 2 (weak fungus formation (5-25% of the entire surface))
contamination rating (fungus formation) (Alternaria; [9]): 2 (weak fungus formation (5-25% of the entire surface))
contamination rating (fungus formation) (Alternaria; plaster, conc. 0.01%, 1 week): 2 (weak fungus formation (5-25% of the entire surface))
contamination rating (fungus formation) (Alternaria; plaster, conc. 0.01%, 2 weeks): 3 (medium fungus formation (25 to 50% of the entire surface))
contamination rating (fungus formation) (Alternaria; plaster, conc. 0.01%, 3 weeks): 4 (strong fungus formation (50-99% of the entire surface))
contamination rating (fungus formation) (Alternaria; plaster, conc. 0.02%, 1 week): 1 (very small fungus formation (0-5% of the entire surface))
contamination rating (fungus formation) (Alternaria; plaster, conc. 0.02%, 2 weeks): 2 (weak fungus formation (5-25% of the entire surface))
contamination rating (fungus formation) (Alternaria; plaster, conc. 0.02%, 3 weeks): 4 (strong fungus formation (50-99% of the entire surface))
contamination rating (fungus formation) (Alternaria; plaster, conc. 0.05%, 1 week): 1 (very small fungus formation (0-5% of the entire surface))
contamination rating (fungus formation) (Alternaria; plaster, conc. 0.05%, 2 weeks): 2 (weak fungus formation (5-25% of the entire surface))
contamination rating (fungus formation) (Alternaria; plaster, conc. 0.05%, 3 weeks): 2 (weak fungus formation (5-25% of the entire surface))

— patent publication US4770705A, “Salts of alkyl-2-benzimidazole-carbamate and fungicidal compositions thereof suitable for paints and plaster” (Schulke & Mayr GmbH, priority 1986, dated 1988)
